In patent US10988466B2, “Heterocyclic derivatives useful as SHP2 inhibitors” (Jacobio Pharmaceuticals Co., Ltd., priority 2017, dated 2021):
pIC50: −log10 of the molar value.

Key:
[1] = biological target: T1, SHP2 (Homo sapiens, UniProt Q06124); assay: biochemical; conditions: read-out: SHP2 inhibition (%)@0.1 μM;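 further: compounds preincubated 30 min at room temperature in the assay mixture, activity referenced to a 0.5% (v/v) DMSO control taken as 100%, run in triplicate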
T1 sequence (Q06124 1-593): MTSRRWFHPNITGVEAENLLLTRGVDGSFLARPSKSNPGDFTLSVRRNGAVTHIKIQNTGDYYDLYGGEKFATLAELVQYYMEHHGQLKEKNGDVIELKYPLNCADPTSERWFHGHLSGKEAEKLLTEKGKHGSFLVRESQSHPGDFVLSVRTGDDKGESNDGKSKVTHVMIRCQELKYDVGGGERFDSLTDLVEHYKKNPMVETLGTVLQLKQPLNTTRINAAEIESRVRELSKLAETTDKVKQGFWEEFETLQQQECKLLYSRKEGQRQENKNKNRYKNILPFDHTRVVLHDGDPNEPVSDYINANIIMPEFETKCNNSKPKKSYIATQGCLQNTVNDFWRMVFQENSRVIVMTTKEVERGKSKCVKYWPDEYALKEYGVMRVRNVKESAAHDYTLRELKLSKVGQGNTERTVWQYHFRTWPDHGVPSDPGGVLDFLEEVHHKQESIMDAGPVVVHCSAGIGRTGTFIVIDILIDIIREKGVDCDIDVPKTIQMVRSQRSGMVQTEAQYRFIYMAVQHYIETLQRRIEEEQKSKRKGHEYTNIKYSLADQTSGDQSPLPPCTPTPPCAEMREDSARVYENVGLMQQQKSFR

[2] = test system: MV-4-11; assay: Cell proliferation assay (MTS/PMS); type: cell-based; conditions: Homo sapiens, MV4-11; MV-4-11 cell proliferation, MTS/PMS readout at day 8, compounds added 24 hours after plating; read-out: IC50

Structure (SMILES) | inhibition at 0.1 µM [1] [%] | pIC50 [2]
Nc1nccc(Sc2cnc(N3CCC4(CC3)Nc3ccccc3[C@H]4N)cn2)c1Cl [Example 71, (R)-1′-(5-((2-amino-3-chloropyridin-4-yl)thio)pyrazin-2-yl)spiro[indoline-2, 4′-piperidin]-3-amine] | 86 | 7.89
Nc1nccc(Sc2cnc(N3CCC4(CC3)Cc3sc(Cl)nc3[C@H]4N)cn2)c1Cl [Example 95, (S)-1′-(5-((2-amino-3-chloropyridin-4-yl)thio)pyrazin-2-yl)-2-chloro-4,6-dihydrospiro [cyclopenta[d]thiazole-5,4′-piperidin]-4-amine] | 73 | 8.00
Nc1cc(Sc2cnc(N3CCC4(CC3)Cc3ncccc3[C@H]4N)cn2)c(Cl)cn1 [Example 112, (S)-1′-(5-((2-amino-5-chloro-pyridin-4-yl)thio)pyrazin-2-yl)-5,7-dihydrospiro [cyclopenta [b]pyridine-6,4′-piperidin]-5-amine] | 87 | 7.52
Nc1nccc(Sc2cnc(N3CCC4(CC3)Cc3nc(Cl)sc3[C@H]4N)cn2)c1Cl [Example 68, (S)-1′-(5-((2-amino-3-chloropyridin-4-yl)thio)pyrazin-2-yl)-2-chloro-4,6-dihydrospiro[cyclopenta [d]thiazole-5,4′-piperidin]-amine] | 82 | 8.31
Nc1nc(N2CCC3(CC2)Cc2nc(Cl)sc2[C@H]3N)cnc1Sc1ccnc(N)c1Cl [Example 69, (S)-1′-(6-amino-5-((2-amino-3-chloropyridin-4-yl)thio)pyrazin-2-yl)-2-chloro-4,6-dihydro-spiro[cyclopenta[d]thiazole-5,4′-piperidin]-6-amine] | 89 | 8.40

Results, then the compound that gave them:

inhibition at 0.1 µM [1] [%] | pIC50 [2] | Structure (SMILES)
89 | 8.48 | Nc1nc(N2CCC3(CC2)Cc2ccc(O)cc2[C@H]3N)cnc1Sc1ccnc(N)c1Cl [Example 137, (S)-1-amino-1′-(6-amino-5-((2-amino-3-chloropyridin-4-yl)thio)pyrazin-2-yl)-1,3-dihydrospiro[indene-2,4′-piperidin]-6-ol]
89 | 7.74 | COc1nccc(Sc2cnc(N3CCC4(CC3)Cc3ncccc3[C@H]4N)cn2)c1Cl [Example 99, (S)-1′-(5-((3-chloro-2-methoxy-pyridin-4-yl)thio)pyrazin-2-yl)-5,7-dihydrospiro [cyclopenta[b]pyridine-6,4′-piperidin]-5-amine]
88 | 7.52 | COc1nccc(Sc2ncc(N3CCC4(CC3)Cc3ncccc3[C@H]4N)nc2N)c1Cl [Example 100, (S)-1′-(6-amino-5-((3-chloro-2-methoxypyridin-4-yl)thio)pyrazin-2-yl)-5,7-dihydro-spiro[cyclopenta [b]pyridine-6,4′-piperidin]-5-amine]
92 | 8.05 | Nc1nccc(Sc2cnc(N3CCC4(CC3)Cc3ncccc3[C@H]4N)cn2)c1F [Example 92, (S)-1′-(5-((2-amino-3-fluoropyridin-4-yl)thio)pyrazin-2-yl)-5,7-dihydrospiro[cyclopenta [b]pyridine-6,4′-piperidin]-5-amine]
91 | 7.80 | Nc1nc(N2CCC3(CC2)Cc2ncccc2[C@H]3N)cnc1Sc1ccnc2ccccc12 [Example 83, (S)-1′-(6-amino-5-(quinolin-4-yl-thio)pyrazin-2-yl)-5,7-dihydrospiro [cyclopenta[b]pyridine-6,4′-piperidin]-5-amine]
88 | 7.92 | Nc1nc(N2CCC3(CC2)Cc2ncccc2[C@H]3N)cnc1Sc1ccnc(N)c1F [Example 91, (S)-1′-(6-amino-5-((2-amino-3-fluoropyridin-4-yl)thio)pyrazin-2-yl)-5,7-dihydrospiro [cyclopenta [b]pyridine-6,4′-piperidin]-5-amine]
